Several values for one entry are separate records, joined by “and”; a condition that tells them apart may be missing. Equal values may be shown once. Toxic doses and inconclusive results are not listed.
Tested on: CD2F1 mice, L1210 leukemia ip, survival T/C
Assay: NCI In Vivo Anticancer Drug Screen. Data for tumor model L1210 Leukemia (intraperitoneal) in CD2F1 (CDF1) mice
Details: higher = longer survival
How it was run: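 Transplantable tumor in mice; compound-treated vs vehicle-treated groups. Read-out = treated/control ratio of the measured endpoint.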

[1] = endpoint: mean survival time, dose: 100.0 mg/kg/injection, schedule: Q04DX003 (ip), vehicle: saline with Tween-80
[2] = endpoint: mean survival time, dose: 100.0 mg/kg/injection, schedule: Q01DX009 (ip), vehicle: saline with Tween-80

O=C1Cc2ccccc2C(=O)N1
T/C (endpoint: mean survival time, dose: 100.0 mg/kg/injection, schedule: Q01DX009 (ip), vehicle: saline sonified): 97 % of control
T/C (endpoint: mean survival time, dose: 200.0 mg/kg/injection, schedule: Q01DX009 (ip), vehicle: saline sonified): 98 % of control
T/C (endpoint: mean survival time, dose: 400.0 mg/kg/injection, schedule: Q01DX009 (ip), vehicle: saline sonified): 89 % of control

Cc1ccc(C(=O)c2ccc([N+](=O)[O-])cc2)cc1
T/C [1]: 94 % of control
T/C (endpoint: mean survival time, dose: 200.0 mg/kg/injection, schedule: Q04DX003 (ip), vehicle: saline with Tween-80): 94 % of control

COc1ccc(CCN2COc3ccc4ccc(=O)oc4c3C2)cc1OC
T/C [2]: 92 % of control
T/C (endpoint: mean survival time, dose: 200.0 mg/kg/injection, schedule: Q01DX009 (ip), vehicle: saline with Tween-80): 97 % of control
T/C (endpoint: mean survival time, dose: 400.0 mg/kg/injection, schedule: Q01DX009 (ip), vehicle: saline with Tween-80): 97 % of control

O=C(Nc1ccc(C2=NCCCN2)cc1)c1ccc(NC(=O)c2ccc(C3=NCCCN3)cc2)cc1
T/C (endpoint: mean survival time, dose: 1.0 mg/kg/injection, schedule: Q01DX008 (iv), vehicle: other): 95 % of control
T/C (endpoint: mean survival time, dose: 2.0 mg/kg/injection, schedule: Q01DX008 (iv), vehicle: other): 107 % of control
T/C (endpoint: mean survival time, dose: 4.0 mg/kg/injection, schedule: Q01DX008 (iv), vehicle: other): 189 % of control

CC#CC(=O)SCCNC(=O)CCNC(=O)CC(C)(C)C
T/C (endpoint: mean survival time, dose: 12.5 mg/kg/injection, schedule: Q01DX009 (ip), vehicle: saline with Tween-80): 101 % of control
T/C (endpoint: mean survival time, dose: 25.0 mg/kg/injection, schedule: Q01DX009 (ip), vehicle: saline with Tween-80): 95 % of control
T/C (endpoint: mean survival time, dose: 25.0 mg/kg/injection, schedule: Q04DX003 (ip), vehicle: saline with Tween-80): 106 % of control
T/C (endpoint: mean survival time, dose: 50.0 mg/kg/injection, schedule: Q01DX009 (ip), vehicle: saline with Tween-80): 98 % of control
T/C (endpoint: mean survival time, dose: 50.0 mg/kg/injection, schedule: Q04DX003 (ip), vehicle: saline with Tween-80): 94 % of control
T/C [2]: 88 % of control
T/C [1]: 98 % of control

O=Cc1ccccc1
T/C (endpoint: mean survival time, dose: 12.5 mg/kg/injection, schedule: Q01DX009 (ip), vehicle: Klucel (hydroxypropylcellulose) (HPC)): 101 % of control
T/C (endpoint: mean survival time, dose: 25.0 mg/kg/injection, schedule: Q01DX009 (ip), vehicle: Klucel (hydroxypropylcellulose) (HPC)): 95 % of control and 102 % of control
T/C (endpoint: mean survival time, dose: 50.0 mg/kg/injection, schedule: Q01DX009 (ip), vehicle: Klucel (hydroxypropylcellulose) (HPC)): 96 % of control and 100 % of control
T/C (endpoint: mean survival time, dose: 100.0 mg/kg/injection, schedule: Q01DX009 (ip), vehicle: Klucel (hydroxypropylcellulose) (HPC)): 97 % of control and 102 % of control
T/C (endpoint: mean survival time, dose: 200.0 mg/kg/injection, schedule: Q01DX009 (ip), vehicle: Klucel (hydroxypropylcellulose) (HPC)): 97 % of control and 105 % of control
T/C (endpoint: mean survival time, dose: 400.0 mg/kg/injection, schedule: Q01DX009 (ip), vehicle: Klucel (hydroxypropylcellulose) (HPC)): 92 % of control and 93 % of control

O=C1O/C(=C\c2ccccc2)c2c(Br)c(Br)c(Br)c(Br)c21
T/C (endpoint: mean survival time, dose: 37.5 mg/kg/injection, schedule: Q01DX009 (ip), vehicle: saline): 96 % of control
T/C (endpoint: mean survival time, dose: 75.0 mg/kg/injection, schedule: Q01DX009 (ip), vehicle: saline): 96 % of control
T/C (endpoint: mean survival time, dose: 150.0 mg/kg/injection, schedule: Q01DX009 (ip), vehicle: saline): 98 % of control
T/C (endpoint: mean survival time, dose: 300.0 mg/kg/injection, schedule: Q01DX009 (ip), vehicle: saline): 100 % of control

CN(C)N=Nc1c(F)c(F)c(C(N)=O)c(F)c1F
T/C (endpoint: mean survival time, dose: 3.13 mg/kg/injection, schedule: Q01DX009 (ip), vehicle: other): 115 % of control
T/C (endpoint: mean survival time, dose: 6.25 mg/kg/injection, schedule: Q01DX009 (ip), vehicle: other): 120 % of control
T/C (endpoint: mean survival time, dose: 50.0 mg/kg/injection, schedule: Q01DX009 (ip), vehicle: other): 96 % of control
T/C (endpoint: mean survival time, dose: 100.0 mg/kg/injection, schedule: Q01DX009 (ip), vehicle: other): 105 % of control

CCC(/C=C/C1OC(=O)C=CC1C)=C\C(C)C/C=C/C(C)=C/C(C)C(=O)C(C)C(O)C(C)C/C(C)=C/C(=O)O (stereo not drawn)
T/C (endpoint: median survival time, dose: 6.25 micrograms/kg/injection, schedule: Q01DX005 (ip), vehicle: saline + alcohol): 120 % of control
T/C (endpoint: median survival time, dose: 12.5 micrograms/kg/injection, schedule: Q01DX005 (ip), vehicle: saline + alcohol): 119 % of control
T/C (endpoint: median survival time, dose: 12.5 micrograms/kg/injection, schedule: Q01DX009 (ip), vehicle: saline + alcohol): 101 % of control
T/C (endpoint: median survival time, dose: 25.0 micrograms/kg/injection, schedule: Q01DX005 (ip), vehicle: saline + alcohol): 120 % of control
T/C (endpoint: median survival time, dose: 25.0 micrograms/kg/injection, schedule: Q01DX009 (ip), vehicle: saline + alcohol): 101 % of control
T/C (endpoint: median survival time, dose: 50.0 micrograms/kg/injection, schedule: Q01DX009 (ip), vehicle: saline + alcohol): 115 % of control

Reference: PubChem BioAssay AID256 (DTP/NCI, 2004)
